Assay results reported in PMC10553834, “Differentiating the roles of Mycobacterium tuberculosis substrate binding proteins, FecB and FecB2, in iron uptake” (PLOS Pathogens, 2023).

Target: FecB E339S (Mycobacterium tuberculosis, UniProt O53291, E339S)
Assay type: binding

carboxymycobactin [apo-cMB]
Fold-decrease: ~1.7 | Kd: 4.8 ± 0.3 µM
